The test system of test [1] is c-fos protein expression in brain regions. Put plainly: i.c.v. secretin, immunocytochemical detection of Fos in rat brain. The conditions noted are these: i.c.v. lateral ventricle, secretin vs PBS, perfused 3 hours after injection, region named in the value. Format: in vivo, Sprague-Dawley rats. The text has this:
The inventors obtained data in eight adult male Sprague-Dawley rats weighing 250-450 g. The rats were obtained from Hilltop Lab Animals, Inc. (Scottdale, Pa.). Under ketamine-xylazine anesthesia, using sterile techniques, a stainless steel guide cannula was stereotaxically inserted into the lateral ventricle of each rat. Each cannula was affixed in place with dental cement secured to the skull. To prevent clogging, a removable 27 gauge wire was inserted into the guide cannula. The placement of the cannula with reference to bregma was 1.4-mm lateral, 0.5-mm caudal, and a depth of 2.5 mm from the surface of the skull. The rats were allowed to recover for 4-5 days before the injections. During this time, both experimental and control rats were administered 0.01 ml/kg buprinorphine hydrochloride every 6 h to reduce pain. Injections were made in the lateral ventricle 5 mm from the surface of the skull, via a premeasured cannula attached by polyethylene tubing (PE20) to a 25 ILL Hamilton syringe containing either phosphate buffered saline (PBS) at pH 7.4 (n=4) or 10 ILg (n=1, pilot study) or 30 ILg (n=3) of secretin (Sigma, St. Louis, Mo.) dissolved in 5-10 ILL PBS. Secretin injections were performed between 11:00 A.M. and 1:00 P.M.
Three hours after the i.c.v. injection, rats were administered sodium pentobarbital and perfused transcardially with heparinized, physiological saline followed by a 4% solution of paraformaldehyde in sodium phosphate buffer, pH 7.4. Whole brains were removed and blocked. Identical procedures were followed in control (n=4) and experimental animals (n=4). Tissue blocks were postfixed for 2-3 h in individual glass vials containing 4% paraformaldehyde in 0.1 M phosphate buffer (PBS, pH 7.4) and cryoprotected overnight at 4° C. in a solution of 10% sucrose in 0.1 M PBS. Frozen sections were cut on a sliding microtome at 30 JLm in the transverse plane and every fourth section was processed immunocytochemically for c-fos protein. Tissues from control and experimental animals were processed simultaneously in the same solutions in order to control for potential variability in immunocytochemistry. All incubations were carried out in separate test wells on a Thomas rotator table. Tissues were collected in 0.1 M PBS (pH 7.4) in spot test wells and washed in Tris-buffered saline (TBS) between each step. Nonspecific binding sites were blocked by preincubating for 30 min in bovine serum albumin (BSA), diluted 1:30 in TBS. Thereafter, sections were incubated overnight in primary whole rabbit antiserum raised against Fos protein diluted 1:10,000 (Oncogene, Cambridge, Mass.). The antisera were diluted in TBS containing 0.1% BSA, to which 0.25% Triton X-100 was added to facilitate antibody penetration. […]

The subject of test [2] is IL10-/- colitis, colon inflammation. Put plainly: IL-10-/- mouse colitis (genetic IBD), hematoxylin/eosin gut histology. Format: in vivo, C57B6 IL-10-/- mice. The conditions noted are these: I.P. infusion by Alzet pump, vs saline. The text has this: An acquired IBD model was created by inducing Colitis in male Sprague-Dawley rats (n=10) with trinitrobenzene sulfonic acid (TNBS) enema. A genetic IBD model was also created using IL-10 mutant mice. IBD criteria was confirmed in both groups by analyzing numbers of lymphocytes and epithelial destruction, and concomitant cerebral metabolic activity patterns comparing regional induction of c-fos gene expression. Control rats (n=11) and control mice (n=5) were also maintained.
Both the acquired IBD (rat) and genetic IBD (mouse) groups were treated with a combined peptide therapy consisting of co-administration of secretin and oxytocin. The acquired IBD subjects were administered a combination of secretin and oxytocin (40 μg/100 μl i.v.×7-20 days two weeks after disease induction). The genetic IBD subjects were administered a combination of secretin and oxytocin (40 μg/100 μl i.v.×7-20 days at age 18 weeks).
Data were obtained in 21 adult male Sprague-Dawley rats weighing 250-450 g and in 14 C57B6 IL-10−/− mice. Rats were obtained from Hilltop Lab Animals, Inc. (Scottdale, Pa.) and housed at the New York State Psychiatric Institute Housing Facility. Mice were obtained from Jackson Laboratory (Bar Harbor, Me.) and housed at the Eye Institute Annex of Columbia University.
Sprague-Dawley rats (n=10) were anesthetized with ketamine and xylazine and administered a solution of trinitrobenzene sulfonic acid (TNBS). 0.5 ml of TNBS solution (100 μl TNBS 5% solution; 150 μl PBS; 250 μl 100% ethanol) […] was administered intrarectally (Dohi T, et al., '00). Control rats (n=11) were injected with phosphate buffered saline (PBS) solution alone. On days 0, 3 and 7, the TNBS enema was administered via a glass microsyringe equipped with a gastric intubation needle. The animals were treated at the following time intervals: […] after the TNBS treatment in the Sprague-Dawley rats and at 18 weeks of age in the IL-10−/− mice.
Animals were anesthetized with xylazine (7-10 mg/kg I.P.) and ketamine (60 mg/kg I.P.) prior to implantation of an Alzet pump (model #2002). […]

Test [3] relates to c-fos protein expression in brain regions. Put plainly: i.c.v. secretin, immunocytochemical detection of Fos in rat brain. Format: in vivo, Sprague-Dawley rats. The conditions noted are these: secretin infusion into the fourth ventricle (Example 4).

Entries after “also recorded” stand apart in the source; their conditions may differ. No end group written: not given here.

“secretin (HSDGTFTSELSRLRDSARLQRLLQGLV; not fully specified; ends and bridges not checked; UniProt P63298 33-59, looked up) [twenty-seven amino acid peptide and an enterogastrone; commercially available as SecreFlo]”: the “Fos immunoreactivity (c-fos expression) attenuated in brain regions” value in test [1] was “attenuated Fos labeling; also recorded: attenuated c-fos expression of the parietal cortex”; in test [1] (listed as Secretin), “attenuated Fos immunoreactivity in the dorsal periaqueductal gray, the intralamanar thalamus, the medial parvicellular hypothalamus, which synthesizes corticotrophin releasing hormone, the motor cortex, and the somatosensory and association areas of the parietal cortex”. The “Fos immunoreactivity (c-fos expression) induced in brain regions” value in test [1] is “c-fos induction in ependymal and subependymal nuclei lining the third ventricle; also recorded: most heavily concentrated along the medial bank of the prefrontal cortex, the orbitofrontal cortex, the anterior olfactory nucleus, and the piriform cortex; also recorded: Fos immunoreactivity in behavioral, endocrine, and autonomic areas; also recorded: activated the NTS and its projection fields in the reticular formation, diffuse projection systems and the mesolimbic network; also recorded: area postrema was also activated; also recorded: induced c-fos expression in the locus ceruleus (LC); also recorded: induced c-fos expression of ependymal (arrows) and subependymal cells lining the third ventricle (III); also recorded: induced c-fos expression of the piriform cortex”; in test [1] (listed as Secretin), “altered numbers of Fos immunoreactive nuclei, mainly in visceral and limbic areas of the brain; also recorded: induced c-fos protein expression in the dorsal vagal complex, including the general afferent division of NTS and the dorsal motor nucleus; also recorded: Fos IR was concentrated throughout the area postrema and its subpostremal region of transition with the NTS and the commissural, medial parvicellular and periventricular subnuclei; also recorded: activated c-fos expression in cells in the intermediate reticular region of the lateral tegmental field; also recorded: induced c-fos expression in the locus ceruleus (FIG. 3), ventral periaqueductal gray, and the paraventricular thalamic nucleus; also recorded: the predominant labeling mapped to the paraventricular hypothalamic nucleus, mainly its periventricular region and magnocellular subdivision; also recorded: induced c-fos in the medial and central amygdala and the lateral septal complex”. The “colon inflammation / inflammatory infiltrates, hematoxylin and eosin histology” value in test [2] is listed as “partial resolution of colon inflammation”; in test [2] (listed as S) it was “partial resolution of inflammation”; in test [2] (listed as Secretin), “dramatic increase in inflammatory infiltrate”. Moreover, in test [3], the brain regions activated result is “activated comparable brain regions; viscerothalamic and HPA stress axes, amygdala, and ependyma”.

Values taken from US7884076B2, “Multipeptide regimen for the treatment of autistic spectrum, behavioral, emotional and visceral inflammation/autoimmune disorders” (The Trustees of Columbia University In the City of New York, priority 2003, dated 2011).
